Patent publication US10718028B2, “Fluorescent probes for abasic site detection” (CASE WESTERN RESERVE UIVERSITY, priority 2015, dated 2020)

Key:
[1] = target: T1, UDG (Escherichia coli, UniProt P12295); test: SSB activity assay UDG inhibition; type: biochemical; details: UDG 10 min pretreatment vs simultaneous UDG and Cy7MX
T1 construct: purchased New England BioLabs
Procedure: FIG. 8 illustrates the evaluation of UDG inhibition by Cy7MX. Time course represents incubation time of U:A DNA before APE addition with UDG alone, 10 minutes UDG pretreatment then Cy7MX, and UDG and Cy7MX without pretreatment.
Method UDG (10 min)+Cy7MX: All samples were prepared in triplicate.
Method UDG+Cy7MX: All samples were prepared in triplicate. […] Samples were incubated at 37° C. in the dark for 2 min, 10 min, 30 min, 60 min, or 180 min.
Method UDG: As in method UDG+Cy7MX except substitute DMSO (2 μL) for Cy7MX.
Likewise, the potential of Cy7MX to inhibit UDG, either through direct interaction with the enzyme or by binding to DNA and blocking the uracil substrate, was tested. To accomplish this, U:A DNA was incubated with UDG for a fixed time prior to addition of Cy7MX (FIG. 8, UDG (10 min)+Cy7MX). In this case, Cy7MX could not interfere with the activity of UDG.

[2] = test system: AP sites in calf thymus AP DNA; test: Genomic DNA time course of Cy7MX binding; details: heat/acid treated DNA, 37° C.
Procedure: Calf thymus DNA was purchased from Sigma and was reconstituted overnight at 4° C. in either H2O or 500 mM MX (to eliminate basal AP sites) with gentle shaking (1.5 mL water or solution per 5 mg DNA). For samples reconstituted in MX solution, an ethanol precipitation was performed twice before heat and acid treatment (vide infra) then reconstituted in water. The DNA-water solution was aliquoted to 1.5 mL Eppendorf tubes (360 μL) and 10× Citrate buffer (1M NaCl, 100 μM monosodium phosphate, 100 μM monosodium citrate, pH 5.0) was added to a final concentration of 1×. For t=0 min samples, ice-cold 100% EtOH (1.0 mL) was added immediately and the Eppendorf tubes stored at −20° C. Other samples were placed in a 70° C. heating block for 15-90 minutes in 15-minute increments. Samples were removed from heat, precipitated in ice-cold 100% EtOH (1.0 mL), and then chilled at −20° C. for at least 20 minutes. Samples were centrifuged at 12,000×G for 10 min at 4° C. The supernatant was discarded. The process was repeated once beginning with the addition of EtOH (1.0 mL). The DNA pellet was dissolved in 700 μL H2O or TE buffer. […]
A 100 mM stock solution of Cy7MX in DMSO was diluted to 25 μM in H2O. […] Aliquots (125 μL) of the samples were added to a black, clear-bottom 96 well plate (Corning) and analyzed with 750 nm excitation and 800 nm emission. Fluorescence was adjusted to DNA concentration.

[3] = test system: AP sites in calf thymus DNA; test: MX and Cy7MX genomic DNA blocking assay; type: binding; details: not blocked by MX
Procedure: FIG. 10 illustrates fluorescence response and MX blocking of Cy7MX. Calf thymus DNA treated with heat and acid for increments of 15 min to give a linear relative number of AP sites. AP DNA was then pretreated with MX (50 mM, +MX) or NaCl (50 mM, −MX) followed by incubation with Cy7MX (0.05 mM). Fluorescence measures show a linear response to Cy7MX when not blocked by MX.
Calf thymus DNA was purchased from Sigma and was reconstituted overnight at 4° C. in either H2O or 500 mM MX (to eliminate basal AP sites) with gentle shaking (1.5 mL water or solution per 5 mg DNA). For samples reconstituted in MX solution, an ethanol precipitation was performed twice before heat and acid treatment (vide infra) then reconstituted in water. The DNA-water solution was aliquoted to 1.5 mL Eppendorf tubes (360 μL) and 10× Citrate buffer (1M NaCl, 100 μM monosodium phosphate, 100 μM monosodium citrate, pH 5.0) was added to a final concentration of 1×. For t=0 min samples, ice-cold 100% EtOH (1.0 mL) was added immediately and the Eppendorf tubes stored at −20° C. […]
To 80 μL aliquots of DNA was added either 10 μL of MX (500 mM, pH 7) or vehicle control (500 mM NaCl). […] Aliquots (125 μL) of the samples were added to a black, clear-bottom 96 well plate (Corning) and analyzed with 700 nm excitation and 790 nm emission. Fluorescence was adjusted to DNA concentration.

[4] = Stability of Cy7MX and Cy7MX-treated samples; type: physicochemical

T1 sequence (P12295 whole entry): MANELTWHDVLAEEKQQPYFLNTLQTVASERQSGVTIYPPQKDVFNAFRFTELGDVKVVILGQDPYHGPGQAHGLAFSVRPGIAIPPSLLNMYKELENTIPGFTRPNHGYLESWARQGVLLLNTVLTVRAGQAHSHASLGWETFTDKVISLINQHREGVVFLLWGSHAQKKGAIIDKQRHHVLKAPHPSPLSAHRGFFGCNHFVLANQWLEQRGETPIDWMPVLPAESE

CCCN1/C(=C/C=C2\CCCC(/C=C/C3=[N+](CCC)c4ccccc4C3(C)C)=C2Oc2ccc(CC(=O)NCCCON)cc2)C(C)(C)c2ccccc21 [Cy7MX, 2-((E)-2-((E)-2-(4-(2-((3-(aminooxy)propyl)amino)-2-oxoethyl)phenoxy)-3-((E)-2-(3,3-dimethyl-1-propylindolin-2-ylidene)ethylidene)cyclohex-1-en-1-yl)vinyl)-3,3-dimethyl-1-propyl-3H-indol-1-ium 2,2,2-trifluoroacetate]
UDG inhibition [1]: does not inhibit UDG activity | time to complete reaction [2]: approximately 10 min | fluorescence intensity versus DNA heat/acid treatment time [3]: linear relationship | stability of Cy7MX with MX ([4]; in the presence of light, MX solutions): decompose Cy7MX rapidly | stability of Cy7MX assay samples ([4]; stored in the dark): stable for at least two days
